This is an account of results in patent US20110212100A1, “METHODS FOR MODULATING DEVELOPMENT AND EXPANSION OF IL-17 EXPRESSING CELLS” (priority 2007, published 2011).

Assay type in all cases: cell-based, mouse
The subject of assay [1] is Th17 differentiation of CD4+ CD25− T cells. As to the kind of experiment: Th17 differentiation (IL-17+ IFNγ− cells) of T cells activated with TGFβ plus IL-6. The protocol: Low doses of halofuginone (HF) were tested to determine the ability of HF to enhance Treg differentiation, while suppressing Th17 differentiation. Nave. CD4+ T cells (CD4+ CD25−) were isolated from the spleen and peripheral lymph nodes of C57B/6 mice. T cells were then activated using anti-CD3 (0.3 μg/ml) and anti-CD28 (0.5 μg/ml) antibodies either in media alone (row 1, 4), TGFβ alone (3 ng/ml—row 2, 5) or TGFβ (3 ng/ml) plus IL-6 (30 ng/ml) (row 3, 6). […] T cells were cultured for 3 days and CD25 and Foxp3 expression (Treg marker genes) was determine by FACS staining and flow cytometric analyses. Simultaneously, T cells were harvested and re-stimulated for 4 hours using phorbol myristic acetate (PMA; 10 nM), Ionomycin (1 μM) and cytokine secretion was prevented using brefeldin A (20 μg/ml). Following stimulation, the production of IL-17 and IFNγ were determined by intracellular staining and analyzed via flow cytometry.
(§1) The dose-response of HF on CD4+ T cell proliferation, activation (i.e. CD25 upregulation) and differentiation to Th1, Th2 and Th17 lineages were evaluated. Purified murine naïve CD4+ CD25− T cells were activated using anti-CD3 (0.3 μg/ml) and anti-CD28 (0.5 μg/ml) antibodies and varying amounts of HF was added to each T cell culture condition (1.25 nM-40 nM). CD4+ T cell proliferation was monitored by CFSE dilution on day 3-post activation and CD25 expression was evaluated by FACS staining 2 days after activation. For T cell differentiation experiments, naïve T cells were activated as above in the presence of Th1 (IL-12 (20 ng/ml) plus anti-IL-4 (10 μg/ml)), Th2 (IL-4 (50 ng/ml) plus anti-IFNγ (0.5 mg/ml)) or Th17 (TGFβ (3 ng/ml) plus IL-6 (30 ng/ml)) polarizing conditions plus titrating amounts of HF (1.25 nM-40 nM) or MAZ1310 (40 nM). The percentage of Th17 cells, (IL-17^+ IFNγ^−) was evaluated on day 3 following activation, whereas the abundance of Th1 cells (IFNγ^+ IL-4) and Th2 cells (IL-4^+ IFNγ^−) was determined 5 days following activation. All cytokine expression was determined by intracellular staining following PMA+Ionomycin+Brefeldin A re-stimulation and all data was normalized to control (MAZ1310)-treated cells. […] Biol., vol. 80:1-8 (2006).
(§2) Cytokines, antibodies and T cell culture: Purified CD4^+ CD25^− T cells were activated in vitro as previously described (I. M. Djuretic et al., Nat Immunol 8, 145 (2007)) using 0.3 μg/ml hamster anti-mouse CD3 (clone 145-2C11) (ATCC—Manassas, Va.) and 0.5 μg/ml hamster anti-mouse CD28 (BD Pharmingen, San Jose, Calif.). Activated cell cultures were differentiated using the following combinations of cytokines and antibodies: iTreg=recombinant human TGFβ1 (3 ng/ml; R&D systems, Minneapolis, Minn.), Th17βTGFβ1 (3 ng/ml) plus recombinant mouse IL-6 (30 ng/ml, R&D systems). Th1 and Th2 differentiation was performed as previously described. (I. M. Djuretic et al., Nat Immunol 8, 145 (2007)). Human IL-2 supernatant (National Cancer Institute) was used in culture at 0.01 U/ml and was added at 48 hours-post activation when T cells were split into tissue culture wells lacking CD3 and CD28 antibodies, with the exception of Th17 cultures that were maintained in the absence of IL-2. All reagents were added at the time of T cell activation and again at 48-hours post activation unless indicated otherwise. For some experiments, purified CD4^+ CD25^− T cells, CD8^+ T cells or B cells were labeled with 1 μM CFSE (Invitrogen) prior to activation in accordance with manufacturers instructions.
Detection of cytokine production: Cytokines secreted into media supernatant were measured using the mouse Th1/Th2 cytometric bead array (CBA, BD Pharmingen) in accordance with manufacturers instructions.

Assay [2] relates to TGFβ-induced Smad phosphorylation. As to the kind of experiment: TGFβ signaling in T and B cells (Smad phosphorylation, lymphocyte responses to TGFβ). Conditions: HF 2.5-40 nM or 10 nM; SB-431542 10 μM. As for the experimental part:
T cells were then activated in the presence or absence of 3 ng/ml. TGFβ. Whole cell extracts were prepared after 1 hour of stimulation and western blot analyses were performed using the indicated antibodies.
Western blotting: Whole cell lysates were generated from T cells activated for the indicated times. For STAT3 and Smad2/3 western blots cells were harvested, washed in PBS and lysed in 50 mM Tris, pH 7.4, 0.1% SDS, 1% Triton-X100, 140 mM NaCl, 1 mM EDTA, 1 mM EGTA supplemented with protease inhibitors tablets (Roche-Germany), 1 mM NaF and 1 mM Na3VO4. For eIF2α and ATF4 western blots, cells were harvested as above and lysed in 50 mM Tris, pH 7.4, 2% SDS, 20% glycerol and 2 mM EDTA supplemented with protease and phosphatase inhibitors as above. All lysates were cleared via centrifugation and 15-30 μg of protein was resolved by SDS-PAGE. Protein was transferred to nitrocellulose membranes, blocked and blotted using specific antibodies. Antibodies used for western blot analysis were anti-phospho-Smad2, anti-STAT3 (pY705), anti-STAT3, anti-eIF2α^pS51, anti-eIF2α, anti-GCN2^pT898, anti-GCN2 (all from cell signaling technology, Danvers, Mass.). Anti-ATF4/CREB2 and anti-β-actin were purchased from Santa Cruz biotechnology (Santa Cruz, Calif.). […]

A further assay has as its system CD4+ CD25− T cells. The experiment in a line: CD4+ T cell proliferation, CD25 upregulation, cytokine production and Th1/Th2/iTreg differentiation. Conditions: titrating concentrations of tunicamycin. As for the experimental part:
as §1, §2
Detection of cytokine production: Cytokines secreted into media supernatant were measured using the mouse Th1/Th2 cytometric bead array (CBA, BD Pharmingen) in accordance with manufacturers instructions. […]

As to `N[C@H](CO)Cc1c[nH]c2ccccc12` [L-tryptophanol], the “effect of L-tryptophanol on IL-17 production, in words” value in assay [1] (0.2 mM in complete medium, TGFβ plus IL-6) is “impaired IL-17 production”.
As for `CC(C)(C)OC(=O)N1CCC[C@H](O)[C@H]1CC(=O)Cn1cnc2cc(Br)c(Cl)cc2c1=O` [MAZ1310], the “activity of the HF derivative used as negative control, in words” value in assay [1] (used at equal concentrations as HF) is “inactive”.
For `NC(=O)c1ccc(-c2nc(-c3ccc4c(c3)OCO4)c(-c3ccccn3)[nH]2)cc1` [SB-431542], in assay [2], the “effect on TGFβ-induced Smad phosphorylation and other lymphocyte responses to TGFβ, in words” value is reported as “abrogated all responses to TGFβ”.
Regarding tunicamycin, the “effect of tunicamycin on IL-17 expression in T cells, in words” value in assay [1] (titrating concentrations of tunicamycin) is given as “little influence on IL-17 expression”. Also, the “effect of tunicamycin on Th1 and Th2 differentiation, in words” value with CD4+ CD25− T cells is “preferentially impaired Th1 and Th2 differentiation”.
